Experimental data taken from the supplement of paper PMC13207355.
± gives the standard deviation of the averaged measurements.

Tests used:
Settings in all cases: exposure time: 72 h
E57 [1] = patient-derived glioblastoma stem cells of mesenchymal subtype; assay: surviving fraction (nuclei count normalised to DMSO); higher = more cells surviving (less toxic)
E34 [2] = patient-derived glioblastoma stem cells of proneural subtype; assay: as above
E21 [3] = patient-derived glioblastoma stem cells of mesenchymal subtype; assay: as above
E13 [4] = patient-derived glioblastoma stem cells of classical subtype; assay: as above
E28 [5] = patient-derived glioblastoma stem cells of classical subtype; assay: as above
E31 [6] = patient-derived glioblastoma stem cells of proneural subtype; assay: as above
FT3469 [7] = normal neural stem cell line; assay: as above
E57 [8] = assay: phenotypic distance (Euclidean, principal components) from DMSO controls (arbitrary units); higher = stronger morphological change
E34 [9] = assay: as above
E21 [10] = assay: as above
E13 [11] = assay: as above
E28 [12] = assay: as above
E31 [13] = assay: as above
FT3469 [14] = assay: as above
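Throughout, for phenotypic distance (Euclidean, principal components) from DMSO controls: cell Painting imaging in 384-well plates, CellProfiler features reduced to at least 20 principal components, Euclidean distance versus same-plate DMSO vehicle wells (0.1% v/v), median over six images per well.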
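Throughout, for surviving fraction (nuclei count normalised to DMSO): nuclei counted by high-content imaging of Hoechst-stained cells in laminin-coated 384-well plates, relative to 0.1% DMSO vehicle wells, with staurosporine as cell-death control.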

Cc1[nH]nc(C(F)(F)F)c1Cc1sc2c(c1C(=O)N1C[C@](C)(O)CO1)c(=O)n(C)c(=O)n2C(C)C [AZD3965]
Settings | phenotypic distance | surviving fraction
E13 [4], 4.1 nM | – | 0.892
E13 [4], 4.11523 nM | – | 0.874
E13 [4], 12.3 nM | – | 0.878
E13 [4], 12.34567901 nM | – | 0.853
E13 [4], 37 nM | – | 0.902
E13 [4], 37.037 nM | – | 0.888
E13 [4], 111.1 nM | – | 0.875
E13 [4], 111.1111111 nM | – | 0.852
E13 [4], 333.3 nM | – | 0.798
E13 [4], 333.333 nM | – | 0.795
E13 [4], 1000 nM | – | 0.8872 ± 0.0032
E13 [4], 3000 nM | – | 0.893 ± 0.14
E13 [11], 4.1 nM | 2.38 | –
E13 [11], 4.11523 nM | 3.36 | –
E13 [11], 12.3 nM | 1.38 | –
E13 [11], 12.34567901 nM | 1.25 | –
E13 [11], 37 nM | 1.12 | –
E13 [11], 37.037 nM | 1.28 | –
E13 [11], 111.1 nM | 1.14 | –
E13 [11], 111.1111111 nM | 1.42 | –
E13 [11], 333.3 nM | 1.61 | –
E13 [11], 333.333 nM | 1.44 | –
E13 [11], 1000 nM | 1.42 ± 0.29 | –
E13 [11], 3000 nM | 1.49 ± 0.26 | –
E21 [3], 4.1 nM | – | 0.918
E21 [3], 4.11523 nM | – | 0.909
E21 [3], 12.3 nM | – | 0.974
E21 [3], 12.34567901 nM | – | 0.942
E21 [3], 37 nM | – | 1.01
E21 [3], 37.037 nM | – | 0.985
E21 [3], 111.1 nM | – | 0.876
E21 [3], 111.1111111 nM | – | 0.994
E21 [3], 333.3 nM | – | 0.97
E21 [3], 333.333 nM | – | 0.874
E21 [3], 1000 nM | – | 0.975 ± 0.013
E21 [3], 3000 nM | – | 1.03 ± 0.048
E21 [10], 4.1 nM | 0.524 | –
E21 [10], 4.11523 nM | 0.56 | –
E21 [10], 12.3 nM | 0.38 | –
E21 [10], 12.34567901 nM | 0.473 | –
E21 [10], 37 nM | 0.579 | –
E21 [10], 37.037 nM | 0.608 | –
E21 [10], 111.1 nM | 3 | –
E21 [10], 111.1111111 nM | 0.601 | –
E21 [10], 333.3 nM | 0.814 | –
E21 [10], 333.333 nM | 0.596 | –
E21 [10], 1000 nM | 0.438 ± 0.024 | –
E21 [10], 3000 nM | 0.509 ± 0.17 | –
E28 [5], 4.1 nM | – | 0.719
E28 [5], 4.11523 nM | – | 0.606
E28 [5], 12.3 nM | – | 0.623
E28 [5], 12.34567901 nM | – | 0.725
E28 [5], 37 nM | – | 0.66
E28 [5], 37.037 nM | – | 0.664
E28 [5], 111.1 nM | – | 0.585
E28 [5], 111.1111111 nM | – | 0.599
E28 [5], 333.3 nM | – | 0.695
E28 [5], 333.333 nM | – | 0.602
E28 [5], 1000 nM | – | 0.645 ± 0.073
E28 [5], 3000 nM | – | 0.609 ± 0.0062
E28 [12], 4.1 nM | 1.93 | –
E28 [12], 4.11523 nM | 2.44 | –
E28 [12], 12.3 nM | 2.03 | –
E28 [12], 12.34567901 nM | 2.3 | –
E28 [12], 37 nM | 2.12 | –
E28 [12], 37.037 nM | 2.05 | –
E28 [12], 111.1 nM | 2.52 | –
E28 [12], 111.1111111 nM | 2.75 | –
E28 [12], 333.3 nM | 2.16 | –
E28 [12], 333.333 nM | 1.86 | –
E28 [12], 1000 nM | 3.17 ± 1.1 | –
E28 [12], 3000 nM | 2.52 ± 0.15 | –
E31 [6], 4.1 nM | – | 1.02
E31 [6], 4.11523 nM | – | 0.885
E31 [6], 12.3 nM | – | 1.01
E31 [6], 12.34567901 nM | – | 1.03
E31 [6], 37 nM | – | 1.11
E31 [6], 37.037 nM | – | 0.935
E31 [6], 111.1 nM | – | 1.02
E31 [6], 111.1111111 nM | – | 1.26
E31 [6], 333.3 nM | – | 1.08
E31 [6], 333.333 nM | – | 0.948
E31 [6], 1000 nM | – | 1.06 ± 0.084
E31 [6], 3000 nM | – | 0.9527 ± 0.0084
E31 [13], 4.1 nM | 1.24 | –
E31 [13], 4.11523 nM | 1.57 | –
E31 [13], 12.3 nM | 1.17 | –
E31 [13], 12.34567901 nM | 1.51 | –
E31 [13], 37 nM | 1.23 | –
E31 [13], 37.037 nM | 1.3 | –
E31 [13], 111.1 nM | 1.12 | –
E31 [13], 111.1111111 nM | 1.4 | –
E31 [13], 333.3 nM | 1.58 | –
E31 [13], 333.333 nM | 1.36 | –
E31 [13], 1000 nM | 1.41 ± 0.15 | –
E31 [13], 3000 nM | 1.36 ± 0.5 | –
E34 [2], 4.1 nM | – | 0.782
E34 [2], 4.11523 nM | – | 0.704
E34 [2], 12.3 nM | – | 0.677
E34 [2], 12.34567901 nM | – | 0.748
E34 [2], 37 nM | – | 0.775
E34 [2], 37.037 nM | – | 0.724
E34 [2], 111.1 nM | – | 0.71
E34 [2], 111.1111111 nM | – | 0.849
E34 [2], 333.3 nM | – | 0.713
E34 [2], 333.333 nM | – | 0.686
E34 [2], 1000 nM | – | 0.7 ± 0.031
E34 [2], 3000 nM | – | 0.718 ± 0.11
E34 [9], 4.1 nM | 1.15 | –
E34 [9], 4.11523 nM | 1.69 | –
E34 [9], 12.3 nM | 1.33 | –
E34 [9], 12.34567901 nM | 1.5 | –
E34 [9], 37 nM | 1.42 | –
E34 [9], 37.037 nM | 1.59 | –
E34 [9], 111.1 nM | 1.57 | –
E34 [9], 111.1111111 nM | 1.79 | –
E34 [9], 333.3 nM | 1.47 | –
E34 [9], 333.333 nM | 1.47 | –
E34 [9], 1000 nM | 1.21 ± 0.17 | –
E34 [9], 3000 nM | 1.35 ± 0.28 | –
E57 [1], 4.1 nM | – | 0.905
E57 [1], 4.11523 nM | – | 0.97
E57 [1], 12.3 nM | – | 0.959
E57 [1], 12.34567901 nM | – | 0.899
E57 [1], 37 nM | – | 0.94
E57 [1], 37.037 nM | – | 0.871
E57 [1], 111.1 nM | – | 0.932
E57 [1], 111.1111111 nM | – | 0.96
E57 [1], 333.3 nM | – | 0.917
E57 [1], 333.333 nM | – | 0.898
E57 [1], 1000 nM | – | 0.922 ± 0.052
E57 [1], 3000 nM | – | 0.917 ± 0.078
E57 [8], 4.1 nM | 1.39 | –
E57 [8], 4.11523 nM | 1.81 | –
E57 [8], 12.3 nM | 1.46 | –
E57 [8], 12.34567901 nM | 1.78 | –
E57 [8], 37 nM | 1.94 | –
E57 [8], 37.037 nM | 2.19 | –
E57 [8], 111.1 nM | 1.74 | –
E57 [8], 111.1111111 nM | 1.87 | –
E57 [8], 333.3 nM | 1.65 | –
E57 [8], 333.333 nM | 1.79 | –
E57 [8], 1000 nM | 1.74 ± 0.13 | –
E57 [8], 3000 nM | 1.93 ± 0.47 | –
FT3469 [7], 4.1 nM | – | 0.911
FT3469 [7], 4.11523 nM | – | 0.788
FT3469 [7], 12.3 nM | – | 0.929
FT3469 [7], 12.34567901 nM | – | 0.932
FT3469 [7], 37 nM | – | 0.838
FT3469 [7], 37.037 nM | – | 0.903
FT3469 [7], 111.1 nM | – | 0.873
FT3469 [7], 111.1111111 nM | – | 1.07
FT3469 [7], 333.3 nM | – | 1.05
FT3469 [7], 333.333 nM | – | 0.841
FT3469 [7], 1000 nM | – | 0.948 ± 0.055
FT3469 [7], 3000 nM | – | 0.899 ± 0.045
FT3469 [14], 4.1 nM | 2.64 | –
FT3469 [14], 4.11523 nM | 1.35 | –
FT3469 [14], 12.3 nM | 0.859 | –
FT3469 [14], 12.34567901 nM | 1.19 | –
FT3469 [14], 37 nM | 0.806 | –
FT3469 [14], 37.037 nM | 1.13 | –
FT3469 [14], 111.1 nM | 0.75 | –
FT3469 [14], 111.1111111 nM | 1.11 | –
FT3469 [14], 333.3 nM | 1.33 | –
FT3469 [14], 333.333 nM | 1.16 | –
FT3469 [14], 1000 nM | 0.712 ± 0.19 | –
FT3469 [14], 3000 nM | 0.976 ± 0.23 | –
